Experimental data reported in ChEMBL document CHEMBL1137215, “A 4'-C-ethynyl-2',3'-dideoxynucleoside analogue highlights the role of the 3'-OH in anti-HIV active 4'-C-ethynyl-2'-deoxy nucleosides” (J Med Chem, 2004).

Key:
MT2 [1] = test: Inhibitory concentration against HIV LAI in MT-2 cells when tested at a range of 0.001-10 uM concentration; Inactive; assay type: functional, cell-based, Homo sapiens
MT4 [2] = test: Inhibitory concentration against HIV LAI in MT-4 cells when tested at a range of 0.001-10 uM concentration; Inactive; assay type: functional, cell-based, Homo sapiens
MT4 [3] = test: Inhibitory concentration of compound against HIV LAI in MT-4 cells when tested at a range of 0.001-10 uM concentration; assay type: functional, cell-based; conditions: Homo sapiens
MT2 [4] = test: Inhibitory concentration of compound against HIV LAI in MT-2 cells when tested at a range of 0.001-10 uM concentration; assay type: functional, cell-based; conditions: Homo sapiens

| IC50 (MT2 [1]) | IC50 (MT2 [4]) | SMILES | IC50 (MT4 [2]) | IC50 (MT4 [3]) |
| --- | --- | --- | --- | --- |
| Not Active | – | C#C[C@@]1(CO)CCC(n2ccc(N)nc2=O)O1 (some centres undefined) | Not Active | – |
| – | 10 nM | CC(C)c1nc(CN(C)C(=O)N[C@H](C(=O)N[C@@H](Cc2ccccc2)C[C@H](O)[C@H](Cc2ccccc2)NC(=O)OCc2cncs2)C(C)C)cs1 [RITONAVIR] | – | 10 nM |
